Test results: US5614620A, “DNA binding proteins including androgen receptor” (Arch Development Corporation, priority 1993, dated 1997)

What was measured:
[1] = tested on: AR mRNA; assay: AR mRNA level in ventral prostate of castrated rats (RNA dot hybridization and Northern blot); type: in vivo; details: 5 mg/rat/day
Method: (§1) Because rat ventral prostate is an androgen-sensitive organ and contains the greatest amount of AR and TR2 mRNA, the effect of androgen depletion and replacement on the mRNA levels was studied by RNA dot hybridization and Northern blot analysis. […] Urol., 10:123 (1972)], was injected into normal rats for from 2 to 6 days. TR2 mRNA levels were then measured by dot hybridization as described above.

[2] = tested on: TR2 mRNA; assay: TR2 mRNA level in rat ventral prostate (RNA dot hybridization and Northern blot); type: in vivo
Method: as §1

[3] = tested on: human androgen receptor; details: Govindan, et al.; cited from earlier work
[4] = tested on: ventral prostate; details: castrated rats; Neri, et al.; cited from earlier work
[5] = biological target: T1, 79 kD hAR protein (Homo sapiens, UniProt P10275); assay: competition of non-radioactive steroids with [^3 H] R1881 binding to hAR made in reticulocyte lysate (hydroxylapatite-filter method)
T1 construct: T7 transcript translated in rabbit reticulocyte lysate; untagged
T1 sequence (P10275 191-920): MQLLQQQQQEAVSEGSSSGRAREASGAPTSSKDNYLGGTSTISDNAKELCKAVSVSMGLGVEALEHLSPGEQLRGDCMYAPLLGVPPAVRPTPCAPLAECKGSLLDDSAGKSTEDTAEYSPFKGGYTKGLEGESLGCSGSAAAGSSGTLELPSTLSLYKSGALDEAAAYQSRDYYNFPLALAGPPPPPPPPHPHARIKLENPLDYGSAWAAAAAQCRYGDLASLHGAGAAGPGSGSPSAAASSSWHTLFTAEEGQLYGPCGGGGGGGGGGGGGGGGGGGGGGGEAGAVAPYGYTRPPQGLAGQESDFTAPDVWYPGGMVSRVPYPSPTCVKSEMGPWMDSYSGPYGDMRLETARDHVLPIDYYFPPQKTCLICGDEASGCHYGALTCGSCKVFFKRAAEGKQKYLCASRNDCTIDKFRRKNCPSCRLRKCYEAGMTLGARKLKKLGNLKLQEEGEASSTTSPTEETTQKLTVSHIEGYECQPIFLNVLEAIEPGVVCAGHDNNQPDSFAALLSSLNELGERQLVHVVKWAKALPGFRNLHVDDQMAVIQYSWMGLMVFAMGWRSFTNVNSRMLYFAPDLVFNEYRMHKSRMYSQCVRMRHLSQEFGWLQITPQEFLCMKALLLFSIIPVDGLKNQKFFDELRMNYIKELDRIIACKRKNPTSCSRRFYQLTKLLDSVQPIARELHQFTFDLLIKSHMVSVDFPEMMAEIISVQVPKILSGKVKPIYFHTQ

[6] = tested on: AR; details: Liao, et al. (1973); cited from earlier work
[7] = tested on: hAR in NIH 3T3 cells; details: 6 of about 100 individual cell lines
Excerpt: The expression of cloned AR-genes was achieved as follows in a eukaryotic system. NIH 3T3 cells, contact-inhibited cells established from NIH Swiss mouse embryo, were co-transfected with hAR cDNA inserted into pBPVMTH vectors as described by Gorman, "DNA Cloning", 2:143-190 D. M. Glover, ed.; (Oxford, Washington, D.C. 1985). Transfected cells were cloned and grown in multiple-well cell culture plates. About 100 individual cell lines were isolated.

[8] = biological target: AR of rat ventral prostate; details: read-out: binding constant reported previously, Schilling, et al.; cited from earlier work

Compound: C[C@]12CCC(=O)C[C@@H]1CC[C@@H]1[C@@H]2CC[C@]2(C)[C@@H](O)CC[C@@H]12 [5α-dihydrotestosterone, 17β-hydroxy-5α-androstan-3-one]
- AR mRNA level [1]: reduced the AR mRNA level to that of normal rats
- TR2 mRNA level ([2]; castrated rats, injection, 5 mg/rat/day): reduced the TR2 mRNA to the levels of normal rats

Compound: C[C@]12CCC(=O)C[C@@H]1CC[C@@H]1[C@@H]2CC[C@]2(C)[C@@H](O)CC[C@@H]12 [DHT, dihydrotestosterone]
- binding of tritium-labelled DHT (in words) [3]: with high affinity and specificity

Compound: CC(C)C(=O)Nc1ccc([N+](=O)[O-])c(C(F)(F)F)c1 [Flutamide]
- effect on 5α-dihydrotestosterone action on ventral prostate weights [4]: antagonizes the effects of 5α-dihydrotestosterone on the ventral prostate weights in castrated rats
- TR2 mRNA level ([2]; normal rats, injected for from 2 to 6 days): increased TR2 mRNA levels

Compound: C[C@]12CCC(=O)C=C1CC[C@@H]1[C@@H]2[C@@H](O)C[C@@]2(C)[C@H]1CC[C@]2(O)C(=O)CO [Hydrocortisone]
- competition with [^3 H] R1881 binding (in words) ([5]; 79 kD protein, reticulocyte lysate): did not compete well
- remaining activity at 0.05 µM ([5]; read-out: [^3 H] R1881-bound (% of control)): 90%

Compound: C[C@]1(O)CC[C@H]2[C@@H]3CCC4=CC(=O)CCC4=C3C=C[C@@]21C [R1881, 17α-methyl-17β-hydroxy-estra-4,9,11-trien-3-one]
- [^3 H] R1881-bound (% of control) ([5]; reticulocyte lysate har, 0.05 µM): 10 % of control
- AR binding affinity (in words) [6]: binds AR with high affinity

Compound: C[C@]1(O)CC[C@H]2[C@@H]3CCC4=CC(=O)CCC4=C3C=C[C@@]21C [[^3 H] R1881, 17α[^3 H]-methyl-17β-hydroxy-estra-4,9,11-trien-3-one]
- [^3 H] R1881-binding activity relative to cells transfected with pSV2 vector alone [7]: at least 4 fold
- Kd [8]: 0.65 nM
